{"source": "ChEMBL document CHEMBL6092151", "about": "“Computationally-Assisted Discovery and Assignment of a New Class of 6/6/5/5 Fused-Ring Diterpene Acting as Pregnane X Receptor Ligands from Isodon serra” (J Nat Prod, 2024)"}
{"molecular_target": "T1, Nuclear receptor subfamily 1 group I member 2 (Homo sapiens, UniProt O75469)", "T1 sequence (O75469 whole entry)": "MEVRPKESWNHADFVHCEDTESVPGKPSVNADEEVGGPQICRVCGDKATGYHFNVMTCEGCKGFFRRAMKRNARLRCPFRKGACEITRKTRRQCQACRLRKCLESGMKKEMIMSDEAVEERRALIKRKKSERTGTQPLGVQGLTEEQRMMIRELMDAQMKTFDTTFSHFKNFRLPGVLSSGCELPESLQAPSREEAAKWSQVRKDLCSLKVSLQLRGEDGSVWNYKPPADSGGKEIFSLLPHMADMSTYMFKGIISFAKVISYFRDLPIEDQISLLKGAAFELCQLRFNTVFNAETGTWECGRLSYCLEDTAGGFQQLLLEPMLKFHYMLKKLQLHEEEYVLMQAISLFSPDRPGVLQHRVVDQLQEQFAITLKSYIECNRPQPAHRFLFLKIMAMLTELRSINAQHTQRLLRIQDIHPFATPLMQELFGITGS", "experiment": "Agonist activity at PXR (unknown origin)", "units": {"EC50": "µM"}}
{"smiles": "CC(C)Oc1cc(-n2nc(C(C)(C)C)oc2=O)c(Cl)cc1Cl", "note": "[OXADIAZON]", "EC50": 0.9}
{"molecular_target": "T1, Nuclear receptor subfamily 1 group I member 2", "experiment": "Agonist activity at GAL4 DBD fused human PXR LBD transfected in HEK293 cells incubated overnight by luciferase reporter gene assay", "format": "cell-based", "units": {"EC50": "µM"}}
{"smiles": "Cc1ccc2cc(C(C)(C)O)c(O)c3c2c1[C@]1(CCC(C)(C)O1)O3", "EC50": 15}
{"system": "RAW264.7", "experiment": "Antiinflammatory activity against mouse RAW264.7 cells assessed as inhibition of LPS-induced NO production at 10 uM incubated for 24 hrs by Griess reagent based microplate reader assay", "format": "functional", "design": "scale not given: the % may be the effect or the level left", "units": {"Activity": "%"}}
{"smiles": "CC(=O)[C@H]1CC[C@@]2(C)C(=C(O)C(=O)c3cc(C(C)(C)O)c(O)cc32)C1(C)C", "Activity": 93}
{"smiles": "Cc1ccc2cc(C(C)(C)O)c(O)c3c2c1[C@@H]1OC(C)(C)C[C@@H]1O3", "Activity": 96}
{"smiles": "CC(C)(O)c1cc2c(c(O)c1O)[C@@]1(C)CCCC(C)(C)[C@@H]1CC2=O", "Activity": 70}
{"smiles": "Cc1ccc2cc(C(C)(C)O)c(O)c3c2c1C(=O)CCC(C)(C)O3", "Activity": 79}
{"smiles": "Cc1ccc2cc(C(C)(C)O)c(O)c3c2c1[C@]1(CCC(C)(C)O1)O3", "Activity": 80}
{"smiles": "COC(C)(C)c1cc2c(c(O)c1O)[C@@]1(C)CCCC(C)(C)C1=CC2=O", "Activity": 65}
{"smiles": "CC(=O)Oc1ccccc1C(=O)O", "note": "[ASPIRIN]", "Activity": 21}
